Reference: patent US20110321190A1, “METHOD OF POSITIVE PLANT SELECTION USING SORBITOL DEHYDROGENASE” (Metabolix, Inc., priority 2009, published 2011)
“Also recorded” adds a separate entry of the source.

Experiments:
[1] = test system: switchgrass (Panicum virgatum L. cv. 'Alamo') callus cultures; experiment: Growth of switchgrass callus cultures in the presence of different carbon sources; format: cell-based; settings: wild-type callus; sole carbon source: maltose 83.3 mM, fructose 111 mM, sorbitol 41.2 mM; 4 weeks dark incubation at 28° C.
Source text: The in vitro response of various plants grown on medium supplemented with different sugar sources was investigated. For these purposes, switchgrass (Panicum virgatum L. cv. ‘Alamo’) was chosen as a representative monocot species. Highly embryogenic callus cultures of switchgrass were initiated from mature caryopses according to established procedures (Denchev, P. D. and B. V. Conger, Crop Sci., 34: 1623-1627 (1994)) and transferred to callus multiplication media [media consists of MS basal salts (product#MS002, Caisson Laboratories, North Logan, Utah, USA), 6-benzylaminopurine (BAP, […]), 2,4-dichlorophenoxyacetic acid (2,4-D, […]), and agar (8 g/L agar), pH 5.6]. The media was supplemented with carbon sources as indicated in the following concentrations: maltose (83.3 mM), fructose (111 mM), sorbitol (41.2 mM), or no carbon source. After 4 weeks of dark incubation at 28° C., the callus multiplication ability in the presence of various carbon supplements or no carbon supplement was visually examined.

[2] = test system: Arabidopsis thaliana leaf and root explants; experiment: Calli growth of Arabidopsis thaliana leaf and root explants in the presence of different carbon sources; format: cell-based; settings: sole carbon source as in Example 1; 4 weeks dark incubation at 25° C.
Experimental: Growth of cultures of Arabidopsis thaliana, a model dicot species, were also examined to determine if they were able to grow in the presence of sorbitol as a sole carbon source. Leaf and root explants were excised from sterile seedlings of Arabidopsis and were plated on medium containing maltose, fructose, or sorbitol, or no carbon supplement as described in Example 1.

[3] = test system: tobacco leaf pieces; experiment: Callus induction and shoot regeneration from tobacco leaves on different sugars as sole carbon source; format: cell-based; settings: sole carbon source: sorbitol 16 g/L, fructose 15.8 g/L; 4 weeks in tissue culture
Experimental: To test whether sorbitol dehydrogenase can be used as a positive selection marker in tobacco, pieces of tobacco leaves were tested on media containing different sugars as a sole carbon source.
Sterile grown tobacco leaves were cut into pieces of approximately 0.5-1 cm^2. Leaf pieces were transferred onto MS media containing minimal organics (MSP002 from Caisson Laboratories, North Logan, Utah, USA), 1 mg/L 6-BAP (6-benzylaminopurine) in 1N NaOH, 100 ug/L NAA (α-naphtahalene acetic acid), and the following carbon sources: no sugar; sorbitol, (16 g/L); fructose, (15.8 g/L); sucrose (30 g/L). Explants were maintained in tissue culture for 4 weeks with the following light cycle: 16 hrs in the light at 23° C.; 8 hrs in the dark at 20° C.; relative humidity approximately 45%.

[4] = test system: tomato cells; settings: examples of the cited Trulson patents; cited from earlier work
[5] = test system: switchgrass embryogenic callus cultures; experiment: Agrobacterium-mediated transformation of switchgrass with pMBXS323 and selection on sorbitol as sole carbon source; format: cell-based; settings: medium with sorbitol as sole carbon source; 4-6 wks in the dark at 28° C.
Experimental: Agrobacterium-mediated transformation of switchgrass was performed as previously described (Somleva et al., 2002; Somleva, 2006). Highly embryogenic callus cultures were co-cultured with Agrobacterium tumifaciens strain AGL1 (Lazo et al., 1991) harboring pMBXS323 (FIG. 2) for three days in the dark at 28° C. The Agrobacterium treated cultures were incubated on a medium without selection for three to five days and then were transferred to medium containing sorbitol as the sole carbon source. […] These portions were carefully separated from the main callus and transferred to fresh selection medium for further callus proliferation. Upon transfer to regeneration medium containing sorbitol as the sole carbon source, these calli sectors developed green pigmentation within 3-5 days and eventually formed green adventitious shoots and emblings (somatic embryo derived plantlets) (FIGS. 3a-b).

O=C(CO)[C@@H](O)[C@H](O)[C@H](O)CO [fructose]
callus multiplication ability (visually examined) [1]: able to proliferate normally and displayed considerable callus growth | callus growth of root and leaf cultures [2]: considerable callus growth | callus generation / induction [3]: Callus induction | shoot regeneration [3]: shoot regeneration

OC[C@H]1O[C@@H](O[C@H]2[C@H](O)[C@@H](O)C(O)O[C@@H]2CO)[C@H](O)[C@@H](O)[C@H]1O (stereo partly shown) [lactose]
growth of tomato cells on the carbon source [4]: do not grow

OC[C@H]1O[C@H](O[C@H]2[C@H](O)[C@@H](O)[C@H](O)O[C@@H]2CO)[C@H](O)[C@@H](O)[C@@H]1O [maltose]
callus multiplication ability (visually examined) [1]: able to proliferate normally and displayed considerable callus growth | callus growth of root and leaf cultures [2]: considerable callus growth

OC[C@@H](O)[C@@H](O)[C@H](O)[C@H](O)CO [mannitol]
growth of tomato cells on the carbon source [4]: do not grow

OCc1ccccc1O[C@@H]1O[C@H](CO)[C@@H](O)[C@H](O)[C@H]1O [salicin]
growth of tomato cells on the carbon source [4]: do not grow

OC[C@@H](O)[C@@H](O)[C@H](O)[C@@H](O)CO [sorbitol]
callus multiplication ability (visually examined) [1]: remained dormant with minimal or no incremental growth; also recorded: reduced growth | callus growth of root and leaf cultures [2]: little to no growth | callus generation / induction [3]: Inhibited callus generation | shoot regeneration [3]: inhibited shoot regeneration | growth of tomato cells on the carbon source [4]: do not grow

OC[C@H]1O[C@H](O[C@H]2O[C@H](CO)[C@@H](O)[C@H](O)[C@H]2O)[C@H](O)[C@@H](O)[C@@H]1O [trehalose]
growth of tomato cells on the carbon source [4]: do not grow

pMBXS323: pCAMBIA3300-derived plant transformation plasmid with CaMV35S promoter, hsp70 intron and sdh gene from Pseudomonas sp. KS-E1806
calli clumps showing formation of new growth [5]: 30-50%
